Data reported in ChEMBL document CHEMBL5233201, “Progress in mechanistically novel treatments for schizophrenia” (RSC Med Chem, 2021).

Target: High affinity cGMP-specific 3',5'-cyclic phosphodiesterase 9A (Homo sapiens, UniProt O76083)
Assay: Inhibition of human PDE9A expressed in Escherichia coli DH10 by scintillation proximity assay

High affinity cGMP-specific 3',5'-cyclic phosphodiesterase 9A, sequence (O76083 whole entry): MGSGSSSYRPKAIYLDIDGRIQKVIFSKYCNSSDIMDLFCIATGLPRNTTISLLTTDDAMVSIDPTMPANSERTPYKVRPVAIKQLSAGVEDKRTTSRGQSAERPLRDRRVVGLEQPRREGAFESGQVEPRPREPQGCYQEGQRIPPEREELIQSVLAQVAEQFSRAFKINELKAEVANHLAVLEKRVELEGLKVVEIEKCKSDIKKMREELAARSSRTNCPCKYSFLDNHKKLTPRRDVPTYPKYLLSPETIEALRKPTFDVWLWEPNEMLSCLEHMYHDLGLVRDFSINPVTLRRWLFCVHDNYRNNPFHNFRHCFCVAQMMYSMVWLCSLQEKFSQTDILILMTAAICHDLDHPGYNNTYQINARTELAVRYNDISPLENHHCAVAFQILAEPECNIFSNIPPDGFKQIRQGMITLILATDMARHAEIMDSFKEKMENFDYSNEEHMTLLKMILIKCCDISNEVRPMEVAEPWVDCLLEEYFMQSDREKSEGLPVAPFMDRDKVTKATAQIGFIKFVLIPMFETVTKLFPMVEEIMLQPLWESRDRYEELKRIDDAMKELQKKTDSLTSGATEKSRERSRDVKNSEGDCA

IC50: 0.065 µM
SMILES: O=c1[nH]c(Cc2ccccn2)nc2c1cnn2C1CCOCC1 [OSORESNONTRINE]
